pIC50: −log10 of the molar value.
Experiments:
Type in all cases: functional, cell-based
[1] = Anti-proliferative activity against human OVTOKO cells assessed as cell viability incubated for 24 hrs by CCK-8 assay
TOV21G = assay: Anti-proliferative activity against human TOV-21G cells assessed as cell viability incubated for 24 hrs by CCK-8 assay
[2] = Anti-proliferative activity against human OVMANA cells assessed as cell viability incubated for 24 hrs by CCK-8 assay

Q: With Cc1cn(CCN2CCN(c3ccccc3-c3cc(C#N)cc(C(=O)NCCCN4CCCC4)c3)CC2)c2ccccc12 as the molecule, how does the pIC50 [1] read?
A: Its pIC50 is 6.02.

Q: And the pIC50 (TOV21G)?
A: The pIC50 was 5.92.

Q: And the pIC50 [2]?
A: Its pIC50 is 5.93.

Reference: ChEMBL document CHEMBL5712093, “The histone methyltransferase SMYD2 is a novel therapeutic target for the induction of apoptosis in ovarian clear cell carcinoma cells” (Oncol Lett, 2020)
